# Laboratory results as given in PubChem BioAssay (NCI).
#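 Interpolation was linear, between the two tested concentrations surrounding the appropriate level; five concentrations were tested over 48 hours in 96-well plates. GI50 = concentration required for 50% inhibition of growth. Definition used: TGI = concentration required for complete inhibition of growth.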
# How the values were obtained:
# Assay in all cases: inhibition of tumour cell growth, NCI panel, 48 h
# [1] = tested on: OVCAR-5 ovarian
# [2] = tested on: HT29 colon
# [3] = tested on: M14 melanoma
# [4] = tested on: CAKI-1 renal
# [5] = tested on: NCI-H522 lung
# [6] = tested on: SW-620 colon
# [7] = tested on: BT-549 breast
# [8] = tested on: KM12 colon
# [9] = tested on: A498 renal
# [10] = tested on: NCI/ADR-RES ovarian
# [11] = tested on: MDA-MB-435
# [12] = tested on: TK-10 renal
# [13] = tested on: SK-MEL-5 melanoma
# [14] = tested on: OVCAR-4 ovarian
# [15] = tested on: MCF7 breast
# [16] = tested on: HCC-2998 colon
# [17] = tested on: EKVX NSCLC
# [18] = tested on: OVCAR-3 ovarian
# [19] = tested on: SK-MEL-2 melanoma
# [20] = tested on: SF-268 CNS
# [21] = tested on: UACC-257 melanoma
# [22] = tested on: HS 578T breast
# [23] = tested on: CCRF-CEM leukemia
# [24] = tested on: MOLT-4 leukemia
# [25] = tested on: T-47D breast
# [26] = tested on: HCT-116 colon
# [27] = tested on: COLO 205 colon
# [28] = tested on: SF-295 CNS
# [29] = tested on: SN12C renal
# [30] = tested on: ACHN renal
# [31] = tested on: NCI-H460 lung
# [32] = tested on: SNB-75 CNS
# [33] = tested on: A549 NSCLC
# [34] = tested on: UO-31 renal
# [35] = tested on: HCT-15 colon
# [36] = tested on: K-562 leukemia
# [37] = tested on: LOX IMVI melanoma
# [38] = tested on: HOP-92 NSCLC
# [39] = tested on: RXF 393 renal
# [40] = tested on: DU-145 prostate
# [41] = tested on: OVCAR-8 ovarian
# [42] = tested on: NCI-H226 lung
# [43] = tested on: U251 CNS
# [44] = tested on: SF-539 CNS
# [45] = tested on: MALME-3M melanoma
# [46] = tested on: MDA-MB-231 breast
# [47] = tested on: HOP-62 NSCLC
# [48] = tested on: SK-OV-3 ovarian
# [49] = tested on: NCI-H23 lung
# [50] = tested on: SK-MEL-28 melanoma
# [51] = tested on: HL-60(TB) leukemia
# [52] = tested on: SNB-19 CNS
smiles,measurement,setting,value
COCC1CCCN1c1ccc(/C=C(/C#N)C(N)=S)cc1 (centres undefined),GI50,[1],> 100 µM
same,TGI,[1],> 100 µM
same,GI50,[2],> 100 µM
same,TGI,[2],> 100 µM
same,GI50,[3],> 100 µM
same,TGI,[3],> 100 µM
same,GI50,[4],> 100 µM
same,TGI,[4],> 100 µM
same,GI50,[5],12.7 µM
same,TGI,[5],61.4 µM
same,GI50,[6],79.4 µM
same,TGI,[6],> 100 µM
same,GI50,[7],> 100 µM
same,TGI,[7],> 100 µM
same,GI50,[8],39.5 µM
same,TGI,[8],> 100 µM
same,GI50,[9],> 100 µM
same,TGI,[9],> 100 µM
same,GI50,[10],> 100 µM
same,TGI,[10],> 100 µM
same,GI50,[11],15 µM
same,TGI,[11],> 100 µM
same,GI50,[12],> 100 µM
same,TGI,[12],> 100 µM
same,GI50,[13],89.1 µM
same,TGI,[13],> 100 µM
same,GI50,[14],> 100 µM
same,TGI,[14],> 100 µM
same,GI50,[15],69.4 µM
same,TGI,[15],> 100 µM
same,GI50,[16],> 100 µM
same,TGI,[16],> 100 µM
same,GI50,[17],> 100 µM
same,TGI,[17],> 100 µM
same,GI50,[18],> 100 µM
same,TGI,[18],> 100 µM
same,GI50,[19],> 100 µM
same,TGI,[19],> 100 µM
same,GI50,[20],> 100 µM
same,TGI,[20],> 100 µM
same,GI50,[21],> 100 µM
same,TGI,[21],> 100 µM
same,GI50,[22],> 100 µM
same,TGI,[22],> 100 µM
same,GI50,[23],5.04 µM
same,TGI,[23],20.6 µM
same,GI50,[24],> 100 µM
same,TGI,[24],> 100 µM
same,GI50,[25],30.6 µM
same,TGI,[25],> 100 µM
same,GI50,[26],> 100 µM
same,TGI,[26],> 100 µM
same,GI50,[27],> 100 µM
same,TGI,[27],> 100 µM
same,GI50,[28],> 100 µM
same,TGI,[28],> 100 µM
same,GI50,[29],30.5 µM
same,TGI,[29],> 100 µM
same,GI50,[30],> 100 µM
same,TGI,[30],> 100 µM
same,GI50,[31],> 100 µM
same,TGI,[31],> 100 µM
same,GI50,[32],90.7 µM
same,TGI,[32],> 100 µM
same,GI50,[33],> 100 µM
same,TGI,[33],> 100 µM
same,GI50,[34],> 100 µM
same,TGI,[34],> 100 µM
same,GI50,[35],> 100 µM
same,TGI,[35],> 100 µM
same,GI50,[36],30.2 µM
same,TGI,[36],> 100 µM
same,GI50,[37],> 100 µM
same,TGI,[37],> 100 µM
same,GI50,[38],8.32 µM
same,TGI,[38],89.2 µM
same,GI50,[39],> 100 µM
same,TGI,[39],> 100 µM
same,GI50,[40],> 100 µM
same,TGI,[40],> 100 µM
same,GI50,[41],> 100 µM
same,TGI,[41],> 100 µM
same,GI50,[42],34.6 µM
same,TGI,[42],> 100 µM
same,GI50,[43],> 100 µM
same,TGI,[43],> 100 µM
same,GI50,[44],> 100 µM
same,TGI,[44],> 100 µM
same,GI50,[45],> 100 µM
same,TGI,[45],> 100 µM
same,GI50,[46],9.89 µM
same,TGI,[46],55.8 µM
same,GI50,[47],> 100 µM
same,TGI,[47],> 100 µM
same,GI50,[48],> 100 µM
same,TGI,[48],> 100 µM
same,GI50,[49],> 100 µM
same,TGI,[49],> 100 µM
same,GI50,[50],> 100 µM
same,TGI,[50],> 100 µM
same,GI50,[51],> 100 µM
same,TGI,[51],> 100 µM
same,GI50,[52],> 100 µM
same,TGI,[52],> 100 µM
